Assay results: ChEMBL document CHEMBL1667745, “Synthesis and antibacterial evaluation of novel clarithromycin derivatives with C-4″ elongated arylalkyl groups against macrolide-resistant strains” (2011)
≈ marks a conversion by molar mass, not a printed value.

How the values were obtained:
Assay type in all cases: functional
Streptococcus pneumoniae [1] = test: Antimicrobial activity against erythromycin-resistant Streptococcus pneumoniae B1 expressing the erm gene by broth microdilution method
Streptococcus pyogenes [2] = test: Antimicrobial activity against erythromycin-resistant Streptococcus pyogenes R2 by broth microdilution method
Streptococcus pneumoniae [3] = test: Antimicrobial activity against erythromycin-resistant Streptococcus pneumoniae AB11 expressing the erm and mef gene by broth microdilution method
Streptococcus pneumoniae [4] = test: Antimicrobial activity against erythromycin-resistant Streptococcus pneumoniae A22072 expressing the mef gene by broth microdilution method
Streptococcus pyogenes [5] = test: Antimicrobial activity against erythromycin-susceptible Streptococcus pyogenes S2 by broth microdilution method
Streptococcus pneumoniae [6] = test: Antimicrobial activity against erythromycin-susceptible Streptococcus pneumoniae ATCC 49619 by broth microdilution method
Staphylococcus aureus [7] = test: Antimicrobial activity against erythromycin-susceptible Staphylococcus aureus ATCC 25923 by broth microdilution method
Staphylococcus aureus [8] = test: Antimicrobial activity against penicillin-susceptible Staphylococcus aureus P1 by broth microdilution method

SMILES | MIC (Streptococcus pneumoniae [1]) | MIC (Streptococcus pyogenes [2]) | MIC (Streptococcus pneumoniae [3]) | MIC (Streptococcus pneumoniae [4]) | MIC (Streptococcus pyogenes [5]) | MIC (Streptococcus pneumoniae [6]) | MIC (Staphylococcus aureus [7]) | MIC (Staphylococcus aureus [8])
CC[C@H]1OC(=O)[C@H](C)[C@@H](O[C@H]2C[C@@](C)(OC)[C@@H](OC(=O)NCCCCCC(=O)NCc3ccccc3)[C@H](C)O2)[C@H](C)[C@@H](O[C@@H]2O[C@H](C)C[C@H](N(C)C)[C@H]2O)[C@](C)(OC)C[C@@H](C)C(=O)[C@H](C)[C@@H](O)[C@]1(C)O | 64 µg/mL (≈ 64.4 µM) | 0.25 µg/mL (≈ 0.251 µM) | 64 µg/mL (≈ 64.4 µM) | 2 µg/mL (≈ 2.01 µM) | 0.12 µg/mL (≈ 0.121 µM) | 0.03 µg/mL (≈ 0.0302 µM) | 0.5 µg/mL (≈ 0.503 µM) | 8 µg/mL (≈ 8.05 µM)
CC[C@H]1OC(=O)[C@H](C)[C@@H](O[C@H]2C[C@@](C)(OC)[C@@H](O)[C@H](C)O2)[C@H](C)[C@@H](O[C@@H]2O[C@H](C)C[C@H](N(C)C)[C@H]2O)[C@](C)(O)C[C@@H](C)C(=O)[C@H](C)[C@@H](O)[C@]1(C)O [ERYTHROMYCIN] | 128 µg/mL (≈ 174 µM) | 4 µg/mL (≈ 5.45 µM) | 256 µg/mL (≈ 349 µM) | 8 µg/mL (≈ 10.9 µM) | 0.03 µg/mL (≈ 0.0409 µM) | 0.03 µg/mL (≈ 0.0409 µM) | 0.25 µg/mL (≈ 0.341 µM) | 0.25 µg/mL (≈ 0.341 µM)
